Earlier results, collected in patent US20100178285A1, “SYNERGISTIC ANTHELMINTIC COMPOSITION” (priority 2006, published 2010).
Read-outs that look alike come from different tables or passages of the source.

Assays:
[1] = test system: Heligmosomoides polygyrus; conditions: in vitro, H. polygyrus
[2] = test system: gastrointestinal nematodes of sheep and goats
[3] = test system: gastrointestinal nematodes of sheep and goats; conditions: first farm, ten days after treatment
[4] = test system: mixed species of gastrointestinal nematodes; conditions: sheep, 7.5 mg/kg
[5] = sheep
[6] = second farm, 10 days after treatment

| SMILES | effect of inhibitor on efficacy of the cysteine proteinases [1] | reduction in faecal egg count [2, 6] [%] | reduction in faecal egg count [3] [%] | reduction in faecal egg count ([2]; first farm, ten days after treatment) [%] | reduction in EPG [4] [%] | free T3 and free T4 levels ([5]; either group (7.5 and 40 mg kg(−1))) | inorganic phosphate levels ([5]; groups 1 and 2) | serum albumin level ([5]; groups 1 and 2) | serum cholesterol level ([5]; groups 1 and 2) | triiodothyronine (T3) and thyroxin (T4) levels vs control ([5]; oral 7.5 mg kg(−1) (group 1)) | levels of total T3 ([5]; oral 40 mg kg(−1) (group 2)) | levels of total T4 ([5]; oral 40 mg kg(−1) (group 2)) | alanine aminotransferase (ALT) activity ([5]; oral 7.5 and 40 mg kg(−1)) | aspartate aminotransferase (AST) activity ([5]; oral 7.5 and 40 mg kg(−1)) | creatinine kinase (CK) activity ([5]; oral 7.5 and 40 mg kg(−1)) | lactate dehydrogenase (LDH) activity ([5]; oral 7.5 and 40 mg kg(−1)) | serum alkaline phosphatase (ALP) activities ([5]; oral 7.5 and 40 mg kg(−1)) |
| --- | --- | --- | --- | --- | --- | --- | --- | --- | --- | --- | --- | --- | --- | --- | --- | --- | --- |
| CC(C)C[C@H](NC(=O)[C@H]1O[C@@H]1C(=O)O)C(=O)NCCCCN=C(N)N [Group E-64, E-64] | completely inhibited |  |  |  |  |  |  |  |  |  |  |  |  |  |  |  |  |
| CCCSc1ccc2nc(NC(=O)OC)[nH]c2c1 [albendazole] |  | 59.4 |  |  |  |  |  |  |  |  |  |  |  |  |  |  |  |
| c1ccc([C@H]2CN3CCSC3=N2)cc1 [levamisole] |  | 99.4 | 97 | 98 | 99.2 | not changed | decreased | increased | increased | no significant changes | increase | decreased | increased significantly | increased significantly | increased significantly | increased significantly | decreased |
